The values that follow come from patent US20070149535A1, “Protein kinase inhibitors” (ONCALIS AG, priority 2004, published 2007).

Common to all, as to assay: Yeast growth assay, specificity profiling
Common to all, as to format: cell-based
What all share (parameters): key: “−” indicates no growth restoration i.e. no activity against the particular kinase; “+”, “++”, and “+++” indicate activity detected by restoration of growth, classified into three categories of potency; “+”, “++”, and “+++” indicate activity detected by restoration of growth, classified into three categories of potency; “+”, “++”, and “+++” indicate activity detected by restoration of growth, classified into three categories of potency
Common to all, as to conditions: 7 concentrations between 0.2 and 100 μM

One test concerns the target T1, InsR (Homo sapiens, UniProt P06213).
T1 construct: expressed in transfected cells; host or cells: yeast
As for the experimental part: (§1) Specificity Profiling: Yeast Growth Assay
(§2) The yeast growth assay was performed as described in “Method for the identification and/or validation of receptor tyrosine kinase inhibitors” PCT/CH03/00694 (2004/10/24), section “Modes for Carrying out the Invention, Experiment 1 and Experiment 2.
(§3) Briefly, yeast cells carrying plasmids with the RTK of interest were grown in glucose containing medium (repressing expression). The cultures were diluted into galactose containing medium, which induces the expression of the kinase. Expression of the kinase inhibits growth of the yeast cells, which allows for positive selection of kinase inhibitors restoring growth of cells. Compounds were titrated at 7 concentrations between 0.2 and 100 μM.
(§4) Specificity profiling of compounds, using the yeast growth assay method described above. “−” indicates no growth restoration i.e. no activity against the particular kinase, “+”, “++”, and “+++” indicate activity detected by restoration of growth, classified into three categories of potency according to the maximal level of growth restoration reached and the concentration at which the maximal growth restoration is reached.

Another test concerns the target T2, EphA2 (Homo sapiens, UniProt P29317).
T2 construct: expressed in transfected cells; host or cells: yeast
On the procedure:
as §1, §2, §3, §4

Another test has as its target T3, FGFR-1 (Homo sapiens, UniProt P11362).
T3 construct: expressed in transfected cells; host or cells: yeast
As for the experimental part: as §1, §2, §3, §4

For another test, the target named is T4, FGFR-4 (Homo sapiens, UniProt P22455).
T4 construct: expressed in transfected cells; host or cells: yeast
On the procedure:
as §1, §2, §3, §4

A further test has as its target T5, VEGFR1 (Homo sapiens, UniProt P17948).
T5 construct: expressed in transfected cells; host or cells: yeast
As for the experimental part: as §1, §2, §3, §4

The target of a further test is T6, IGF-1R (Homo sapiens, UniProt P08069).
T6 construct: expressed in transfected cells; host or cells: yeast
On the procedure: as §1, §2, §3, §4

The target in a further test is T7, EphB4 (Homo sapiens, UniProt P54760).
T7 construct: expressed in transfected cells; host or cells: yeast
T7 sequence (P54760 16-987): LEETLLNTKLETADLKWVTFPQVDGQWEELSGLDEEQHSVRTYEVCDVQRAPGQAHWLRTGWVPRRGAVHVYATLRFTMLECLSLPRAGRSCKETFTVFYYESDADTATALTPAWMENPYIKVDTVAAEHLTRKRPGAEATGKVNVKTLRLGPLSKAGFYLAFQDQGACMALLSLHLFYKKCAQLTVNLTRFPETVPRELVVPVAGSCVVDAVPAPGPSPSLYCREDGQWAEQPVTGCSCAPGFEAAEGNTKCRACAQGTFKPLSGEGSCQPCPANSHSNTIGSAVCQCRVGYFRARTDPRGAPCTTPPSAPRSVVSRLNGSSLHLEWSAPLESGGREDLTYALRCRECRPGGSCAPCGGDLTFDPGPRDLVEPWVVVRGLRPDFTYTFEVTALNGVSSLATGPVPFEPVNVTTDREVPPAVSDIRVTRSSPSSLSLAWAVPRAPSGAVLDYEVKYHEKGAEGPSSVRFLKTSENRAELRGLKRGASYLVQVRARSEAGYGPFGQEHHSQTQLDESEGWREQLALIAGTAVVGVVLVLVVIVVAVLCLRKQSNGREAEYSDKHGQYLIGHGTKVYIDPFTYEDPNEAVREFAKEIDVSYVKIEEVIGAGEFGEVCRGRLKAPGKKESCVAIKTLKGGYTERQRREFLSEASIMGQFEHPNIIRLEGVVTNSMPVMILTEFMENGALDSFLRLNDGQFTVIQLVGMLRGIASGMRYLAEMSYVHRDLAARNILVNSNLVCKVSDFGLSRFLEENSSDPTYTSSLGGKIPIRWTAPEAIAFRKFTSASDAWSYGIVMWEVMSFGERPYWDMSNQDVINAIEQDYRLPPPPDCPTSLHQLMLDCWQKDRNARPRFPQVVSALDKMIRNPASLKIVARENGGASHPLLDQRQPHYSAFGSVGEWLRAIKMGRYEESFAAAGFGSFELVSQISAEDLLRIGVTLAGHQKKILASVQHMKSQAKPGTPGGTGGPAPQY
As for the experimental part:
as §1, §2, §3, §4

T6 sequence (P08069 31-1367): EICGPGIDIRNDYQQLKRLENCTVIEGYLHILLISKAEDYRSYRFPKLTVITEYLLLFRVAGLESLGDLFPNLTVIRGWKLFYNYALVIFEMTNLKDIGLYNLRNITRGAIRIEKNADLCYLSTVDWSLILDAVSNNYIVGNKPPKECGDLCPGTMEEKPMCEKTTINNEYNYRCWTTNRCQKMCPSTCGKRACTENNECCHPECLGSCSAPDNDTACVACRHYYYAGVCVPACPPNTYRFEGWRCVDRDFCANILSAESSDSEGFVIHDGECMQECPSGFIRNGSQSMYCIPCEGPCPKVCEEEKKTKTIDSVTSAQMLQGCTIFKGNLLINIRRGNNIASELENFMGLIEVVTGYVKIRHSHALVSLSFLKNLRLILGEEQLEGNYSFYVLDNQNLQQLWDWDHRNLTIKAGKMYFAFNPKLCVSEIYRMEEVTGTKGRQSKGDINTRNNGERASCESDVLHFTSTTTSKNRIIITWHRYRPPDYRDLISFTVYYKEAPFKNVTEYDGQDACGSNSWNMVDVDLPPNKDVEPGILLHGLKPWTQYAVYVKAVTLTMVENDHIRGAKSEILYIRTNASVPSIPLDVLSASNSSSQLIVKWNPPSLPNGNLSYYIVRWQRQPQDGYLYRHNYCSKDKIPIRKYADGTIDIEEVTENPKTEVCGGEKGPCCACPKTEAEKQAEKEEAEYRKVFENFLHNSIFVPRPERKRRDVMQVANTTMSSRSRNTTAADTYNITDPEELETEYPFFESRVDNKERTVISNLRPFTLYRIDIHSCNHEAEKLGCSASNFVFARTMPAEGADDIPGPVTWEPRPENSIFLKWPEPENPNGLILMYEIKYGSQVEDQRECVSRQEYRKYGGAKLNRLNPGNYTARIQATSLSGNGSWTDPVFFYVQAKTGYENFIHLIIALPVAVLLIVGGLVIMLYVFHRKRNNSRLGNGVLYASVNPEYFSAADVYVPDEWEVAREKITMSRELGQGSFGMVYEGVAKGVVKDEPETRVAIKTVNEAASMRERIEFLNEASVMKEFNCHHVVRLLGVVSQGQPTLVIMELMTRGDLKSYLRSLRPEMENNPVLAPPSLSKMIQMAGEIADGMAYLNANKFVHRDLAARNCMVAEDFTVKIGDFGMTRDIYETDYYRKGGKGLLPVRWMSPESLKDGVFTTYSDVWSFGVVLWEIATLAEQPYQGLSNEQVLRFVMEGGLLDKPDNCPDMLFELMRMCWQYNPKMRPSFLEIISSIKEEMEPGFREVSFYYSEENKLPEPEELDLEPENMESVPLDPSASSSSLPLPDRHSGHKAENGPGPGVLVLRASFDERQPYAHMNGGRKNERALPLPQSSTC
T1 sequence (P06213 28-1382): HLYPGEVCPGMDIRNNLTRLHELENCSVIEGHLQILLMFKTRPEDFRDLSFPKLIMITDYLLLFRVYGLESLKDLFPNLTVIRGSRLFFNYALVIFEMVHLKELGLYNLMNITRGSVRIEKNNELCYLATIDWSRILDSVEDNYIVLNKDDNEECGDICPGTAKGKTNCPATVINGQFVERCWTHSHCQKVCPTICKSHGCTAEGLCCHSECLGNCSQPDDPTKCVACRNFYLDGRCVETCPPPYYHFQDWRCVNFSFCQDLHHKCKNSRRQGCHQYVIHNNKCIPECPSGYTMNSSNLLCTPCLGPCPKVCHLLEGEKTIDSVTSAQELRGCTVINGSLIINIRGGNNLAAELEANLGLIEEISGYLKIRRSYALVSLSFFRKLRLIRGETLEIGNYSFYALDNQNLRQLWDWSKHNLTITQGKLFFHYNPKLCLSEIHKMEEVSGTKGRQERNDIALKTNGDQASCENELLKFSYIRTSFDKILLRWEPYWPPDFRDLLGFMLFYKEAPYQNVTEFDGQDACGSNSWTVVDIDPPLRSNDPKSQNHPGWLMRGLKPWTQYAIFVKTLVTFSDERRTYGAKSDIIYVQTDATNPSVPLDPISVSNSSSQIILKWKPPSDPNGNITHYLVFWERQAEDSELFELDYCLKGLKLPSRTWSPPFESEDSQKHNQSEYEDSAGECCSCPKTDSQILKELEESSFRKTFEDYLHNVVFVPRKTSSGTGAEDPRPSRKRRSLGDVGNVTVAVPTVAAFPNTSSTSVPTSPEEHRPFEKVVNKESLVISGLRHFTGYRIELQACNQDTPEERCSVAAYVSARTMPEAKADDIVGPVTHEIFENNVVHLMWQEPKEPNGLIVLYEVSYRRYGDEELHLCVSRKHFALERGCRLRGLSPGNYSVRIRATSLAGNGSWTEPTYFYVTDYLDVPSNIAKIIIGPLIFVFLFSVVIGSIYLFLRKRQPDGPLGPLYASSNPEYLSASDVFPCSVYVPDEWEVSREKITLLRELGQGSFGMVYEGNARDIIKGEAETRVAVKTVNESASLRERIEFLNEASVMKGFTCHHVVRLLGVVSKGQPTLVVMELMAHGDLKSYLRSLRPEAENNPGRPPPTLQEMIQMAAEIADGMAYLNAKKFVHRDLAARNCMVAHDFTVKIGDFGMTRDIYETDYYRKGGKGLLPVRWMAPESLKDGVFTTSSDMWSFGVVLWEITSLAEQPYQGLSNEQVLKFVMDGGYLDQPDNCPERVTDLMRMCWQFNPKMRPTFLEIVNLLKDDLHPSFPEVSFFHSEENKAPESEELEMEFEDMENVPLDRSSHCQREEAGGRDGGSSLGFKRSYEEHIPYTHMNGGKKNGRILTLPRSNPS
T2 sequence (P29317 24-976): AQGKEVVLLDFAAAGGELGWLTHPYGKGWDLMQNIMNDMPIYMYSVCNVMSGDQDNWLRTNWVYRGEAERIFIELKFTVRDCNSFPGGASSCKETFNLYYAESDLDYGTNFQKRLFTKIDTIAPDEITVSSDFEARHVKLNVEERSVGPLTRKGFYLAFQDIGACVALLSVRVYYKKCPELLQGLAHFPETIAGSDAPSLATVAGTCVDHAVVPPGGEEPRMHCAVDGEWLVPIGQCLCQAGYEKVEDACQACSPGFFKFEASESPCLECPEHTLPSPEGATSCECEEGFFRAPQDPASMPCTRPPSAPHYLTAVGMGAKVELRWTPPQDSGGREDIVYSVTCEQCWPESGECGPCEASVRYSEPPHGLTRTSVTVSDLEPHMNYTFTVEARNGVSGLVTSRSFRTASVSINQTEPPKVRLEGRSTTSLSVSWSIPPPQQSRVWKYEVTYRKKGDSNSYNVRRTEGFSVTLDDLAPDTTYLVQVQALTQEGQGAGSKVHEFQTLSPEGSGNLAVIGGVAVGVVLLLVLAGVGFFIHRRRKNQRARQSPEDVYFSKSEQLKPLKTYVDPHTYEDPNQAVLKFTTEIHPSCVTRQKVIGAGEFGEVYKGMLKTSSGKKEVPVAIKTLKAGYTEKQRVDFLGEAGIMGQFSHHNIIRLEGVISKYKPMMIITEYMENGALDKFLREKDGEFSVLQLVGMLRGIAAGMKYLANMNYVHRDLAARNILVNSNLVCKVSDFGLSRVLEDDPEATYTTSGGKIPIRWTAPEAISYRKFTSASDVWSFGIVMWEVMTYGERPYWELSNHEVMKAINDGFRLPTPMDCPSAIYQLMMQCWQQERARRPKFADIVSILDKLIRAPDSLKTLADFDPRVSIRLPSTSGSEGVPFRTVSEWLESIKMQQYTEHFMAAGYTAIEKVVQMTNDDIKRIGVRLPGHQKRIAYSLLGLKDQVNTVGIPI
T5 sequence (P17948 27-1338): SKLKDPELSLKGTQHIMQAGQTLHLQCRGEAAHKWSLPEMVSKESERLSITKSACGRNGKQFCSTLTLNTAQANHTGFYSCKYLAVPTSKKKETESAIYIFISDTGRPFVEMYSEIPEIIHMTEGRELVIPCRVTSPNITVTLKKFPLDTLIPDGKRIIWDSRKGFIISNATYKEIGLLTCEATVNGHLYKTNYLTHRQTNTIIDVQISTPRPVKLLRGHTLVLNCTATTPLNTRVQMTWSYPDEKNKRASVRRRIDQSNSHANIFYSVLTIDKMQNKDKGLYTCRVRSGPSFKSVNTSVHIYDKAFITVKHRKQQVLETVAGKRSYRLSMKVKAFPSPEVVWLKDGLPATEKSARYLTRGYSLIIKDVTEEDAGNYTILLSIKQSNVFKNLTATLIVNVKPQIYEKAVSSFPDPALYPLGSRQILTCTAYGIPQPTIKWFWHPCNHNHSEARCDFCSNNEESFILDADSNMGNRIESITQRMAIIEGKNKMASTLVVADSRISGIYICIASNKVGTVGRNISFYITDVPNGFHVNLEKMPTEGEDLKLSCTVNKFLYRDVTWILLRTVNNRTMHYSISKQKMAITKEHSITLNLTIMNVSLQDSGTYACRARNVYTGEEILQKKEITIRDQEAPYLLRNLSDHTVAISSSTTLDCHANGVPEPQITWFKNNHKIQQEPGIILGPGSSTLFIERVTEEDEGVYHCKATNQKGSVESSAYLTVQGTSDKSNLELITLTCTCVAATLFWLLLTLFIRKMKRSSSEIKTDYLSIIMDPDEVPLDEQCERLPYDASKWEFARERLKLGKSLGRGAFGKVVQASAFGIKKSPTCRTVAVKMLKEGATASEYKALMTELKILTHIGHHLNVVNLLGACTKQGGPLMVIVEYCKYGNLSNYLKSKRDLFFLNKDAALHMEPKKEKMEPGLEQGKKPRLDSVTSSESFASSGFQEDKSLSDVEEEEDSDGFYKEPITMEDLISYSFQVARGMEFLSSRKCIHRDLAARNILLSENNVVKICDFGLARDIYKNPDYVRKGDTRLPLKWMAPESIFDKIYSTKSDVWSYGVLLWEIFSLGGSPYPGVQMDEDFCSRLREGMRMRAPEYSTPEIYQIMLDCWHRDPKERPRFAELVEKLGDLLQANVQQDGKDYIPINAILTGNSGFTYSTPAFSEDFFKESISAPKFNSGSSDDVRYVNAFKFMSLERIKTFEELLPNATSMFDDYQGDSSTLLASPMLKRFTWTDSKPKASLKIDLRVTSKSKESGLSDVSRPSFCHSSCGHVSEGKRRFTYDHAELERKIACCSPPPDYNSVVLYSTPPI

`Cc1nccn2c(Nc3cccc(Cl)c3)c(-c3ccccc3)nc12` [compound 3, (3-Chloro-phenyl)-(8-methyl-2-phenyl-imidazo[1,2-a]pyrazin-3-yl)-amine]: the InsR growth restoration entry on InsR is “−”. The EphA2 growth restoration entry on EphA2 is “−”. Further, the FGFR-1 growth restoration entry on FGFR-1 was “−”. In addition, the FGFR-4 growth restoration result at FGFR-4 is “−”. On VEGFR1, the VEGFR1 growth restoration result was “−”. The IGF-1R growth restoration result at IGF-1R was “−”. On EphB4, the EphB4 growth restoration result is reported as “++”.

With `COc1cccc(-c2nc3cnccn3c2Nc2cccc(Cl)c2)c1` [compound 7, (3-Chloro-phenyl)-[2-(3-methoxy-phenyl)-imidazo[1,2-a]pyrazin-3-yl]-amine], the InsR growth restoration entry at InsR is recorded as “−”. Besides, the EphA2 growth restoration result at EphA2 was “−”. Moreover, the FGFR-1 growth restoration entry at FGFR-1 is recorded as “−”. At FGFR-4, the FGFR-4 growth restoration result is listed as “−”. Besides, the VEGFR1 growth restoration result on VEGFR1 was “−”. Also, the IGF-1R growth restoration entry on IGF-1R is given as “−”. Besides, on EphB4, the EphB4 growth restoration entry is given as “+”.

As to `CC(=O)Nc1ccc(-c2nc3cnccn3c2Nc2cccc(Cl)c2)cc1` [compound 8, N-{4-[3-(3-Chloro-phenylamino)-imidazo[1,2-a]pyrazin-2-yl]-phenyl}-acetamide], the InsR growth restoration result at InsR is listed as “−”. Besides, the EphA2 growth restoration entry on EphA2 was “+”. In addition, at VEGFR1, the VEGFR1 growth restoration entry was “−”. Besides, the IGF-1R growth restoration entry at IGF-1R was “−”. In addition, the EphB4 growth restoration entry on EphB4 was “++”.

Take `Nc1ccc(-c2nc3cnccn3c2Nc2cccc(Cl)c2)cc1` [compound 10, [2-(4-Amino-phenyl)-imidazo[1,2-a]pyrazin-3-yl]-(3-chloro-phenyl)-amine]: the InsR growth restoration result at InsR was “−”. The EphA2 growth restoration entry at EphA2 is “++”. The VEGFR1 growth restoration result on VEGFR1 is on record as “−”. For the same compound, the IGF-1R growth restoration result on IGF-1R was “−”. Moreover, at EphB4, the EphB4 growth restoration entry was “+++”.

Consider `CC(C)c1nc2cnccn2c1Nc1cccc(Cl)c1` [compound 12, (3-Chloro-phenyl)-(2-isopropyl-imidazo[1,2-a]pyrazin-3-yl)-amine], for which the InsR growth restoration entry at InsR was “−”. Further, at EphA2, the EphA2 growth restoration result was “+”. For the same compound, the VEGFR1 growth restoration result at VEGFR1 is “−”. For the same compound, at IGF-1R, the IGF-1R growth restoration entry is on record as “−”. For the same compound, the EphB4 growth restoration entry at EphB4 was “+”.

As to `CNc1nccn2c(Nc3cccc(Cl)c3)c(-c3ccccc3)nc12` [compound 20, N′3-(3-Chloro-phenyl)-N′8-methyl-2-phenyl-imidazo[1,2-a]pyrazine-3,8-diamine], on InsR, the InsR growth restoration result is “−”. The EphA2 growth restoration entry at EphA2 is recorded as “−”. Moreover, the VEGFR1 growth restoration entry on VEGFR1 is “−”. For the same compound, the IGF-1R growth restoration entry at IGF-1R is “−”. Further, the EphB4 growth restoration result at EphB4 is on record as “−”.

On to `Fc1cccc(Nc2c(-c3ccccc3)nc3cnccn23)c1` [compound 26, (3-Fluoro-phenyl)-(2-phenyl-imidazo[1,2-a]pyrazin-3-yl)-amine], for which the InsR growth restoration result on InsR was “−”. Also, on EphA2, the EphA2 growth restoration entry was “−”. The VEGFR1 growth restoration result at VEGFR1 was “−”. For the same compound, at IGF-1R, the IGF-1R growth restoration entry was “−”. The EphB4 growth restoration result on EphB4 is recorded as “++”.

As for `Fc1ccc(Nc2c(-c3ccccc3)nc3cnccn23)cc1F` [compound 30, (3,4-Difluoro-phenyl)-(2-phenyl-imidazo[1,2-a]pyrazin-3-yl)-amine], the InsR growth restoration entry at InsR was “−”. Further, the EphA2 growth restoration result at EphA2 is listed as “−”. The VEGFR1 growth restoration entry on VEGFR1 is given as “−”. Besides, the IGF-1R growth restoration result on IGF-1R was “−”. Moreover, the EphB4 growth restoration entry on EphB4 is listed as “++”.

Take `CC(=O)Nc1ccc(-c2nc3c(C)nccn3c2Nc2cccc(Cl)c2)cc1` [compound 33, N-{4-[3-(3-Chloro-phenylamino)-8-methyl-imidazo[1,2-a]pyrazin-2-yl]-phenyl}-acetamide]: the InsR growth restoration result on InsR was “−”. The EphA2 growth restoration result at EphA2 was “+”. For the same compound, the VEGFR1 growth restoration entry at VEGFR1 is “−”. The IGF-1R growth restoration entry at IGF-1R was “−”. Also, the EphB4 growth restoration entry on EphB4 is reported as “+++”.

Take `c1ccc(Nc2c(-c3ccc(N4CCOCC4)cc3)nc3cnccn23)cc1` [compound 38, [2-(4-Morpholin-4-yl-phenyl)-imidazo[1,2-a]pyrazin-3-yl]-phenyl-amine]: the InsR growth restoration entry at InsR is listed as “+”. On EphA2, the EphA2 growth restoration entry was “+”. Besides, the VEGFR1 growth restoration result on VEGFR1 was “+”. The IGF-1R growth restoration entry on IGF-1R is given as “−”. Also, the EphB4 growth restoration entry at EphB4 is given as “++”.

With `COc1cccc(-c2nc3c(C)nccn3c2Nc2cccc(C)c2)c1` [compound 42, [2-(3-Methoxy-phenyl)-8-methyl-imidazo[1,2-a]pyrazin-3-yl]-m-tolyl-amine], the InsR growth restoration entry on InsR is “−”. For the same compound, the EphA2 growth restoration result on EphA2 is given as “+”. Also, on VEGFR1, the VEGFR1 growth restoration result is on record as “−”. For the same compound, on IGF-1R, the IGF-1R growth restoration result was “−”. For the same compound, the EphB4 growth restoration entry at EphB4 was “++”.

`COc1cccc(-c2nc3c(C)nccn3c2Nc2cccc(Cl)c2)c1` [compound 48, (3-Chloro-phenyl)-[2-(3-methoxy-phenyl)-8-methyl-imidazo[1,2-a]pyrazin-3-yl]-amine]: the InsR growth restoration result at InsR is recorded as “−”. Also, at EphA2, the EphA2 growth restoration result was “+”. For the same compound, the VEGFR1 growth restoration result at VEGFR1 was “−”. Besides, the IGF-1R growth restoration result on IGF-1R is recorded as “−”. The EphB4 growth restoration result at EphB4 was “++”.
